Target: T1, 11β-HSD1 (human enzyme) (Homo sapiens, UniProt P28845)
T1 construct: made in house
Test: Enzyme Assay (SPA, 3H-cortisone), human enzyme prep
Assay type: biochemical
Conditions: species of enzyme (human or mouse) not stated

T1 sequence (P28845 whole entry): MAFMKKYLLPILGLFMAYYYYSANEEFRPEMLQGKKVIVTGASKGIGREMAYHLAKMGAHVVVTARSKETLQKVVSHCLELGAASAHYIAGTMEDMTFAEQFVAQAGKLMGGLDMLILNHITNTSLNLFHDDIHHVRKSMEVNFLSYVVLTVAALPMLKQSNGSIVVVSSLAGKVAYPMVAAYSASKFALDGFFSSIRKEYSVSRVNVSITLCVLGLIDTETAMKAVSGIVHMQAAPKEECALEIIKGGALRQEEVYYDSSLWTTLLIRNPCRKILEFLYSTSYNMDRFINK

| IC50 | Compound |
| --- | --- |
| < 20 nM | Cc1ccccc1NC1=NC(=O)C(C2CCCC2)S1 (stereo not shown) [2-(o-toluidino)-5-cyclopentylthiazol-4(5H)-one] |
| < 20 nM | CC(C)C1(C)SC(Nc2ccccc2Cl)=NC1=O (stereo not shown) [2-((2-chlorophenyl)amino)-5-methyl-5-(1-methylethyl)-1,3-thiazol-4(5H)-one] |
| < 20 nM | CC1(CC2CCOCC2)SC(N[C@H]2C[C@@H]3CC[C@H]2C3)=NC1=O (stereo partly drawn) [2-((1S,2S,4R)-bicyclo[2.2.1]heptan-2-ylamino)-5-methyl-5-((tetrahydro-2H-pyran-4-yl)methyl)thiazol-4(5H)-one] |
| < 20 nM | CC(C)C1(C)SC(Nc2ccccc2C(F)(F)F)=NC1=O (stereo not shown) [5-methyl-5-(1-methylethyl)-2-((2-(trifluoromethyl)phenyl)amino)-1,3-thiazol-4(5H)-one] |

Source: US8541592B2, “Inhibitors of 11-beta-hydroxysteroid dehydrogenase type 1” (Amgen Inc., priority 2005, dated 2013)
